US12195427B2, “MASP-2 inhibitors and methods of use” (priority 2018, dated 2025)

target: MASP-2 CCP2-SP (Homo sapiens (Human), UniProt O00187); experiment: MASP-2 co-crystallization, X-ray crystallography and structure analysis (H-bonds, van der Waals contacts); design: van der Waals contact distance, MASP-2 HIS 483 atom CD2 / van der Waals contact distance, MASP-2 HIS 483 atom NE2 / van der Waals contact distance, SER 654 C to compound atom / van der Waals contact distance, SER 654 O to compound atom / van der Waals contact distance, TRP 655 C to compound atom / van der Waals contact distance, MASP-2 GLY 528 atom CA / van der Waals contact distance TRP 655 atom CZ3 / van der Waals contact distance TRP 655 atom N / van der Waals contact distance TRP 655 atom CE3 / van der Waals contact distance GLY 656 atom C / van der Waals contact distance GLY 656 atom CA / van der Waals contact distance GLY 656 atom O / van der Waals contact distance, MASP-2 TYR 607 atom CD1 / van der Waals contact distance, MASP-2 PRO 606 atom O / d(C3,CA1) / d(CA1,N1)2 / d(H4,O1) / d(H4,O2) / d(O1,O2) / d(CA1,O2) / d(CA6,O1) / d(CA6,O2) / d(CA1,C5) / d(O2,H3) / d(N2,C2) / d(CA5,N2) / d(N2,C4) / d(N2,C6) / d(N2,CA3) / d(N2,O3) / d(O4,H2): unit not given beside the values; settings: Table A4-1; element C2;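 on Ligand-pharmacophore element distance, pharmacophore element C2: distance from averaged pharmacophore element to bound ligand; missing value means element absent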;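 on Ligand-pharmacophore element distance, pharmacophore element C3: distance from averaged pharmacophore element to bound ligand; missing value means element absent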;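 on Ligand-pharmacophore element distance, pharmacophore element C4: distance from averaged pharmacophore element to bound ligand; missing value means element absent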;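 on Ligand-pharmacophore element distance, pharmacophore element C5: distance from averaged pharmacophore element to bound ligand; missing value means element absent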
Sequence (O00187 445-686): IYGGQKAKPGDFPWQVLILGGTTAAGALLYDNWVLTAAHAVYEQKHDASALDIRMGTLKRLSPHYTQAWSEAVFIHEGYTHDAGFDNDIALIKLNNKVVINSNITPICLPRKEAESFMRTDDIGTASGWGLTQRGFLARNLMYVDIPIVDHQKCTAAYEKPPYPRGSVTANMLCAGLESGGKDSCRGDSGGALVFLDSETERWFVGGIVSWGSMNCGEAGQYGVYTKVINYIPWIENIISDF
Sequence (O00187 364-432 partner): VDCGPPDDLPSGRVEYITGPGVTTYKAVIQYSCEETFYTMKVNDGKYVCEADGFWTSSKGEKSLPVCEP
Source text: This example illustrates the preparation of recombinant MASP-2 protein, based on UniProt O00187, human mannan-binding lectin serine protease 2. Expression constructs for human MASP-2 CCP2-SP and CCP2-SP-6HIS were generated for recombinant expression in E. coli cells.
Typically, crystallization hits were obtained by screening against […] 96-well crystallization reagent kits (GRAS6, GRAS2, Hampton Research; MORPHEUS, Molecular Dimensions; Wizard 1&2 Cryo, Rigaku Reagents) and crystal growth was inspected by optical microscopy. Crystals were used directly or further optimized for X-ray diffraction. Crystals were captured with cryogenic loops and dipped into liquid nitrogen directly or cryoprotected with a 20% glycerol in crystallization formulation before flash-cooling in liquid nitrogen.
Thereafter crystals are transferred once or twice for soaking within the crystallization solution containing the MASP-2 inhibitor.
Crystals were diffracted with synchrotron X-rays of […] and X-ray diffraction datasets were collected at beamlines SSRL BL9-2, BL14-1, BL12-2 as well as ALS sector 5 using Dectris Pilatus and Eiger detectors. Structures were determined by molecular replacement using portions of the structure 1Q3X as search models and partially refined with Buster 2.10.2 or Refmac 5.8. […] When multiple ligand poses were observed, for instance arising from multiple molecules in the asymmetric unit or refined dual poses within the same molecule, only one pose was selected and analyzed.
LigPlot+ calls these ‘nonbonded contacts’ or ‘hydrophobic contacts’. Despite the name, there are atom pairings that include possible H-bonds. Thus, in some instances, the Table A2 also contains H-bond interactions.

SMILES	Ligand-pharmacophore element distance, pharmacophore element C2
C[C@H](NC(=O)[C@H]1C[C@@H](c2ccccc2)CCN1)C(=O)NCc1cc(Cl)ccc1O.Cl [1078_16]	0.64
C[C@H](NC(=O)[C@H](N)C1Cc2ccccc2C1)C(=O)NCc1ccc2c(N)nccc2c1.Cl.Cl [1088_A]	1.75

same assay, conditions: Table A4-1; element C3

SMILES	Ligand-pharmacophore element distance, pharmacophore element C3
C[C@H](NC(=O)[C@H]1C[C@@H](c2ccccc2)CCN1)C(=O)NCc1cc(Cl)ccc1O.Cl [1078_16]	0
C[C@H](NC(=O)[C@H](N)C1Cc2ccccc2C1)C(=O)NCc1ccc2c(N)nccc2c1.Cl.Cl [1088_A]	0

same assay, conditions: Table A4-1; element C4

SMILES	Ligand-pharmacophore element distance, pharmacophore element C4
C[C@H](NC(=O)[C@H]1C[C@@H](c2ccccc2)CCN1)C(=O)NCc1cc(Cl)ccc1O.Cl [1078_16]	0
C[C@H](NC(=O)[C@H](N)C1Cc2ccccc2C1)C(=O)NCc1ccc2c(N)nccc2c1.Cl.Cl [1088_A]	0

same assay, conditions: Table A4-1; element C5

SMILES	Ligand-pharmacophore element distance, pharmacophore element C5
C[C@H](NC(=O)[C@H]1C[C@@H](c2ccccc2)CCN1)C(=O)NCc1cc(Cl)ccc1O.Cl [1078_16]	0.42
C[C@H](NC(=O)[C@H](N)C1Cc2ccccc2C1)C(=O)NCc1ccc2c(N)nccc2c1.Cl.Cl [1088_A]	0

same assay, conditions: Table A4-1; element C6

SMILES	Ligand-pharmacophore element distance, pharmacophore element C6
C[C@H](NC(=O)[C@H]1C[C@@H](c2ccccc2)CCN1)C(=O)NCc1cc(Cl)ccc1O.Cl [1078_16]	0
C[C@H](NC(=O)[C@H](N)C1Cc2ccccc2C1)C(=O)NCc1ccc2c(N)nccc2c1.Cl.Cl [1088_A]	0

same assay, conditions: Table A4-1; element C7

SMILES	Ligand-pharmacophore element distance, pharmacophore element C7
C[C@H](NC(=O)[C@H]1C[C@@H](c2ccccc2)CCN1)C(=O)NCc1cc(Cl)ccc1O.Cl [1078_16]	0
C[C@H](NC(=O)[C@H](N)C1Cc2ccccc2C1)C(=O)NCc1ccc2c(N)nccc2c1.Cl.Cl [1088_A]	0

same assay, conditions: Table A4-1; element CA1

SMILES	Ligand-pharmacophore element distance, pharmacophore element CA1
C[C@H](NC(=O)[C@H]1C[C@@H](c2ccccc2)CCN1)C(=O)NCc1cc(Cl)ccc1O.Cl [1078_16]	1.49
C[C@H](NC(=O)[C@H](N)C1Cc2ccccc2C1)C(=O)NCc1ccc2c(N)nccc2c1.Cl.Cl [1088_A]	0.4

same assay, conditions: Table A4-1; element CA2

SMILES	Ligand-pharmacophore element distance, pharmacophore element CA2
C[C@H](NC(=O)[C@H]1C[C@@H](c2ccccc2)CCN1)C(=O)NCc1cc(Cl)ccc1O.Cl [1078_16]	0.49
C[C@H](NC(=O)[C@H](N)C1Cc2ccccc2C1)C(=O)NCc1ccc2c(N)nccc2c1.Cl.Cl [1088_A]	0

same assay, conditions: Table A4-1; element CA3

SMILES	Ligand-pharmacophore element distance, pharmacophore element CA3
C[C@H](NC(=O)[C@H]1C[C@@H](c2ccccc2)CCN1)C(=O)NCc1cc(Cl)ccc1O.Cl [1078_16]	0
C[C@H](NC(=O)[C@H](N)C1Cc2ccccc2C1)C(=O)NCc1ccc2c(N)nccc2c1.Cl.Cl [1088_A]	0

same assay, conditions: Table A4-1; element CA4

SMILES	Ligand-pharmacophore element distance, pharmacophore element CA4
C[C@H](NC(=O)[C@H]1C[C@@H](c2ccccc2)CCN1)C(=O)NCc1cc(Cl)ccc1O.Cl [1078_16]	0
C[C@H](NC(=O)[C@H](N)C1Cc2ccccc2C1)C(=O)NCc1ccc2c(N)nccc2c1.Cl.Cl [1088_A]	0

same assay, conditions: Table A4-1; element CA5

SMILES	Ligand-pharmacophore element distance, pharmacophore element CA5
C[C@H](NC(=O)[C@H]1C[C@@H](c2ccccc2)CCN1)C(=O)NCc1cc(Cl)ccc1O.Cl [1078_16]	0
C[C@H](NC(=O)[C@H](N)C1Cc2ccccc2C1)C(=O)NCc1ccc2c(N)nccc2c1.Cl.Cl [1088_A]	0.39

same assay, conditions: Table A4-1; element CA6

SMILES	Ligand-pharmacophore element distance, pharmacophore element CA6
C[C@H](NC(=O)[C@H]1C[C@@H](c2ccccc2)CCN1)C(=O)NCc1cc(Cl)ccc1O.Cl [1078_16]	0
C[C@H](NC(=O)[C@H](N)C1Cc2ccccc2C1)C(=O)NCc1ccc2c(N)nccc2c1.Cl.Cl [1088_A]	0

same assay, conditions: Table A5-1 pharmacophore: distance between elements, S2/S1 region

SMILES	d(CA1,C5)	d(CA1,O1)	d(CA1,O2)	d(CA1,O4)	d(H4,O1)	d(H4,O2)	d(O1,O2)	d(O4,H2)
C[C@H](NC(=O)[C@H]1C[C@@H](c2ccccc2)CCN1)C(=O)NCc1cc(Cl)ccc1O.Cl [1078_16]	3.13	4.42	4.54	2.74	2.20	2.69	3.11	0.97
C[C@H](NC(=O)[C@H](N)C1Cc2ccccc2C1)C(=O)NCc1ccc2c(N)nccc2c1.Cl.Cl [1088_A]		5.33	4.61		6.97	5.89	3.49	

same assay, conditions: Table A5-2 pharmacophore distance, S3/S4 region

SMILES	d(N2,C2)	d(N2,CA2)	d(O2,H3)	d(O2,N2)	d(CA5,N2)
C[C@H](NC(=O)[C@H]1C[C@@H](c2ccccc2)CCN1)C(=O)NCc1cc(Cl)ccc1O.Cl [1078_16]	1.49	5.80	2.96	2.90	
C[C@H](NC(=O)[C@H](N)C1Cc2ccccc2C1)C(=O)NCc1ccc2c(N)nccc2c1.Cl.Cl [1088_A]	3.41		3.72	2.73	5.30

same assay, conditions: Table A6-1 pharmacophore angle

SMILES	a(C5, CA1, O1)	a(CA1, O1, O2)	a(CA1, O4, H2)	a(O1, CA1, O4)	a(O1, O2, H4)
C[C@H](NC(=O)[C@H]1C[C@@H](c2ccccc2)CCN1)C(=O)NCc1cc(Cl)ccc1O.Cl [1078_16]	161.46	112.44	126.68	67.40	101.76
C[C@H](NC(=O)[C@H](N)C1Cc2ccccc2C1)C(=O)NCc1ccc2c(N)nccc2c1.Cl.Cl [1088_A]		99.08			149.95

same assay, conditions: Table A6-2 pharmacophore angle

SMILES	a(O1, O2, H3)	a(O1, O2, N2)	a(O2, N2, C2)	a(O2, N2, CA2)
C[C@H](NC(=O)[C@H]1C[C@@H](c2ccccc2)CCN1)C(=O)NCc1cc(Cl)ccc1O.Cl [1078_16]	140.06	144.54	122.62	154.31
C[C@H](NC(=O)[C@H](N)C1Cc2ccccc2C1)C(=O)NCc1ccc2c(N)nccc2c1.Cl.Cl [1088_A]	144.04	141.09	141.58	

same assay, conditions: Table A7-1; between pharmacophore elements of the bound compound

SMILES	Pharmacophore torsion angle a(C5, CA1, O1, H4)	Pharmacophore torsion angle a(H4, O1, O2, H3)	Pharmacophore torsion angle a(H4, O1, O2, N2)	Pharmacophore torsion angle a(O1, H4, O2, CA1)	Pharmacophore torsion angle a(O1, O2, N2, C2)
C[C@H](NC(=O)[C@H]1C[C@@H](c2ccccc2)CCN1)C(=O)NCc1cc(Cl)ccc1O.Cl [1078_16]	14.30	−119.50	−111.94	−58.07	136.30
C[C@H](NC(=O)[C@H](N)C1Cc2ccccc2C1)C(=O)NCc1ccc2c(N)nccc2c1.Cl.Cl [1088_A]		49.33	120.82	−54.60	103.40

same assay, conditions: Table A7-2; between pharmacophore elements of the bound compound

SMILES	Pharmacophore torsion angle a(O1, O2, N2, CA2)	Pharmacophore torsion angle a(O1, O2, N2, CA5)
C[C@H](NC(=O)[C@H]1C[C@@H](c2ccccc2)CCN1)C(=O)NCc1cc(Cl)ccc1O.Cl [1078_16]	139 28	
C[C@H](NC(=O)[C@H](N)C1Cc2ccccc2C1)C(=O)NCc1ccc2c(N)nccc2c1.Cl.Cl [1088_A]		116.27

same assay, conditions: Table A8-6; 6th residue column; nearest protein atom in cell to the left

SMILES	Pharmacophore protein distance to MET_658 (first MET_658 column)
C[C@H](NC(=O)[C@H](N)C1Cc2ccccc2C1)C(=O)NCc1ccc2c(N)nccc2c1.Cl.Cl [1088_A]	3.04

same assay, conditions: Table A8-6; 9th residue column; nearest protein atom in cell to the left

SMILES	Pharmacophore protein distance to MET_658 (second MET_658 column)
C[C@H](NC(=O)[C@H](N)C1Cc2ccccc2C1)C(=O)NCc1ccc2c(N)nccc2c1.Cl.Cl [1088_A]	3.12

same assay, conditions: Table A8-6; nearest protein atom in cell to the left

SMILES	Pharmacophore protein distance to GLY_528	Pharmacophore protein distance to PHE_529	Pharmacophore protein distance to PRO_608	Pharmacophore protein distance to SER_611
C[C@H](NC(=O)[C@H](N)C1Cc2ccccc2C1)C(=O)NCc1ccc2c(N)nccc2c1.Cl.Cl [1088_A]	3.66	2.75	3.74	2.71

same assay, conditions: Table A8-6; pharmacophore elements C6, CA3, O3, H1; nearest protein atom in cell to the left

SMILES	Pharmacophore protein distance to TRP_655
C[C@H](NC(=O)[C@H](N)C1Cc2ccccc2C1)C(=O)NCc1ccc2c(N)nccc2c1.Cl.Cl [1088_A]	3.75
